Like-named read-outs stand apart in the source and are kept apart here.
How the values were obtained:
Test in all cases: NADPH oxidation at […] nm, Michaelis-Menten fit
Assay type in all cases: biochemical, Aspergillus niger
Settings in all cases: 0.2 mM NADPH, HEPES pH 7.0
XyrB = tested on: T1, XyrB
T1 construct: recombinant plasmid from a previous study, His-tag purified from E. coli

SrdE = tested on: T2, SrdE
T2 construct: cDNA in pET-28a(+), His-tag purified from E. coli

SrdB = tested on: T3, SrdB
T3 construct: cDNA in pET-28a(+), His-tag purified from E. coli

SMILES | Km (XyrB; read-out: D-xylose / Km) | Km (SrdE; read-out: D-xylose / Km) | Km (SrdB; read-out: D-xylose / Km) | Km (XyrB; read-out: L-arabinose / Km) | Km (SrdE; read-out: L-arabinose / Km) | Km (SrdB; read-out: L-arabinose / Km)
OC1OC[C@@H](O)[C@H](O)[C@H]1O (stereo partly drawn) [D-xylose] | 3 mM | 1.1 mM | 2.8 mM | – | – | –
OC1OC[C@H](O)[C@H](O)[C@H]1O (stereo partly drawn) [L-arabinose] | – | – | – | 12.3 mM | 4.3 mM | 4.5 mM

Source: paper PMC10744612, “Genome Mining Reveals a Surprising Number of Sugar Reductases in Aspergillus niger” (Journal of Fungi, 2023)
